Laboratory results published in article PMC5384220 (Nature Communications, 2017).
Entries after “also recorded” stand apart in the source; their conditions may differ. One block for each compound: values may come before it. Where a SMILES comes first, the peptide text is derived from it. Bridges are numbered along the chain shown (N, C = ends). Where no end group is shown, it is not given here. [ ]: non-standard residue; d: D form. Lys(Me3) = C[N+](C)(C)CCCC[C@H](N)C(=O)O; Phe(4-F) = N[C@@H](Cc1ccc(F)cc1)C(=O)O; NMeV = CN[C@H](C(=O)O)C(C)C; NMeC = CN[C@@H](CS)C(=O)O

Assays:
[1] = target: T1, KDM4A (Homo sapiens, UniProt O75164); experiment: AlphaScreen demethylase activity assay, KDM4A; assay type: biochemical; conditions: for IC50: KDM4A 1-359
T1 construct: KDM4A 1-359 E.coli; Hexa-His (N); made in house; host or cells: E. coli
T1 sequence (O75164 1-359): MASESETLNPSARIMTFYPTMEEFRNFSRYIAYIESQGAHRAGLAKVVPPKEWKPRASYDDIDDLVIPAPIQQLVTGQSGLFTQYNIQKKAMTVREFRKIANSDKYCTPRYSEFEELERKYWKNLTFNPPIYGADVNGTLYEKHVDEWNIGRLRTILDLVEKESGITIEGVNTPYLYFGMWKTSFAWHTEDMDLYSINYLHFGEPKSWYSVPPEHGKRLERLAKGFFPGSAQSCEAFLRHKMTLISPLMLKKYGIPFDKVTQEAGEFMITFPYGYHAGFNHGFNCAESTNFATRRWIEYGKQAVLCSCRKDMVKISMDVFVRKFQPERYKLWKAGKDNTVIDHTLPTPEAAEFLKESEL
Procedure: IC50 values for KDM2–6 were measured using an AlphaScreen assay as described. The appropriate KDM (5 μl) was pre-incubated with an inhibitor (0.1 μl in DMSO) or DMSO for 15 min before the addition of 5 μl mixture of biotinylated peptide substrates, 2OG, ferrous ammonium sulfate (1–10 μM final) and ascorbate (100 μM final) to initiate the demethylation reaction. The reaction was quenched with 5 μl of 30 mM EDTA at predetermined reaction times for each enzyme (initial rate). Demethylated product was detected by addition of 5 μl of AlphaScreen donor and acceptor beads (AlphaScreen General IgG Detection Kit, 0.02 mg ml^−1 final each) pre-incubated with antibody. The plates were read after 1 h incubation in a BMG Labtech Pherastar FS plate reader. Data were normalized to a no enzyme control and IC50 values were calculated using nonlinear regression curve fits using GraphPad Prism. Assay buffer (50 mM HEPES pH 7.5, BSA (0.1% w/v) and Tween-20 (0.01% v/v)) was used throughout, except for dilution of stock ferrous ammonium sulfate solutions where water was used. The enzyme, substrate and antibody concentrations used are described in Supplementary Table 3. A fluorescence-based LSD1 inhibitor screening assay kit (Cayman, 700120) was used for KDM1/LSD1 assay. Assays for prolyl hydroxylase domain 2 and factor inhibiting HIF using matrix-assisted laser desorption/ionization–time of flight MS were performed as previously described. Prism 5.0 (GraphPad) was used to generate and to fit dose–response curves. IC50 values were determined by plotting percentage inhibition versus compound concentration relative to positive (vehicle) and negative (no enzyme) controls, using normalized dose–response (variable slope) fit. The reported values are the mean of multiple experiments (n≥3). The formaldehyde dehydrogenase coupled KDM assay was used to determine the mode of inhibition, using 0.5 μM His-KDM4A1–359. Prism 5.0 (GraphPad) was used to fit in mix-mode inhibition, to determine the kinetic parameters. Binding constants for CPs and H3(1–15)K9me3 were measured using biolayer interferometry (OctetRed 384, ForteBio) in buffer (50 mM HEPES (pH 7.5), 150 mM NaCl, 10 μM ammonium iron(II) sulphate). His-KDM4A1–359-Bio (70 nM) was immobilized onto super streptavidin biosensor and subjected to different peptide concentrations in buffer. Data analysis was performed using ForteBio Data Aalysis (v6.4).
Construct Expression [E] / nM [2OG] / µM [Fe(II)] / µM Peptide / nM Peptide sequence Antibody Source […]
Supplementary Table 3. AlphaScreen assay parameters for 2OG oxygenases used for this study. The table was dapted from 10. Assays were performed at 2OG concentration near the 2OG Km values determined experimentally.11 All enzymes were expressed and purified as described.10-12

[2] = target: T2, KDM4C (Homo sapiens, UniProt Q9H3R0); experiment: AlphaScreen demethylase activity assay, KDM4C; assay type: biochemical
T2 construct: KDM4C 1-366 E.coli; made in house; host or cells: E. coli
T2 sequence (Q9H3R0 1-366): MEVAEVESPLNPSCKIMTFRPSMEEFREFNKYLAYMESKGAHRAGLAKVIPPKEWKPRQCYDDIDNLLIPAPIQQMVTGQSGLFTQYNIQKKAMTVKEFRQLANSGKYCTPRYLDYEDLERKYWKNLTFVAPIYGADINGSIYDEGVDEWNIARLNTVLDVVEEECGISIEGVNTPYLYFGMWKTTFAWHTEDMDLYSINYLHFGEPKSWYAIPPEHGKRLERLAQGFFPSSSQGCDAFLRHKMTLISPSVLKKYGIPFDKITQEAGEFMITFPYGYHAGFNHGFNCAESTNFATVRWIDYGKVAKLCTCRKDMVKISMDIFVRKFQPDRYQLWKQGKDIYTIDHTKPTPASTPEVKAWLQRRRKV
Procedure: IC50 values for KDM2–6 were measured using an AlphaScreen assay as described. The appropriate KDM (5 μl) was pre-incubated with an inhibitor (0.1 μl in DMSO) or DMSO for 15 min before the addition of 5 μl mixture of biotinylated peptide substrates, 2OG, ferrous ammonium sulfate (1–10 μM final) and ascorbate (100 μM final) to initiate the demethylation reaction. The reaction was quenched with 5 μl of 30 mM EDTA at predetermined reaction times for each enzyme (initial rate). Demethylated product was detected by addition of 5 μl of AlphaScreen donor and acceptor beads (AlphaScreen General IgG Detection Kit, 0.02 mg ml^−1 final each) pre-incubated with antibody. The plates were read after 1 h incubation in a BMG Labtech Pherastar FS plate reader. Data were normalized to a no enzyme control and IC50 values were calculated using nonlinear regression curve fits using GraphPad Prism. […] A fluorescence-based LSD1 inhibitor screening assay kit (Cayman, 700120) was used for KDM1/LSD1 assay. […] IC50 values were determined by plotting percentage inhibition versus compound concentration relative to positive (vehicle) and negative (no enzyme) controls, using normalized dose–response (variable slope) fit. […] Binding constants for CPs and H3(1–15)K9me3 were measured using biolayer interferometry (OctetRed 384, ForteBio) in buffer (50 mM HEPES (pH 7.5), 150 mM NaCl, 10 μM ammonium iron(II) sulphate). […]

[3] = system: KDM4A; set-up: method as in earlier work; conditions: ref 4 (King et al., supplementary references); read-out: EC50 KDM4A inhibition in cells; cited from earlier work
[4] = system: H3K9me3/H3K36me3 in HeLa cells; experiment: Immunofluorescence of global histone methylation, 72 h dosing; assay type: cell-based; conditions: 72 h treatment
Source text: Supplementary Figure 12. Immunofluorescence analysis of global histone methylation levels after 72hr dosing of cyclic peptides in HeLa cells. (a)-(c) Immunofluorescence analysis of HeLa cells dosed with cyclic peptides for 72 hrs. Maximum intensity projected images of 3D confocal z-stacks showing nuclei stained with […]
DMSO and CP2 treated cells. Bar represents 50µm. Global H3K9me3 (d) and associated nuclei count for the […]
staining, (h) global H3K4me3 and (i) global H3K27me3 staining. An increase in fluorescence intensity, […]
over certain concentration ranges. Average +/- s.e.m (n > 100 cells) are shown except at concentrations of […]
A generic 2OG oxygenase inhibitor 5-carboxy-8-
Immunofluorescence (IF) assay […]
with 0.5% FBS and 1% Pen-Strep. […]
grade plate (Becton Dickinson) and left overnight to adhere. Cells were dosed with cyclic […]
After 30min blocking (3% FBS in […]
three times after each incubation. […]
Image acquisition and analysis […]
image immunostained cells in a 96-well plate configuration. For each well, the system […]
The average intensity for each […]
analysed using GraphPad Prism 5. […]

[5] = system: FLAG-KDM4A in HeLa cells; experiment: Immunofluorescence of H3K9me3 in HeLa cells overexpressing FLAG-KDM4A, 24 h dosing
[6] = target: T3, KDM4A1-359 (Homo sapiens, UniProt O75164); experiment: MALDI-TOF MS demethylation of CP2 variants as substrates; assay type: biochemical; conditions: KDM4A 2 μM, peptide 10 μM, 2OG 100 μM, 2 h 37 °C
T3 construct: Hexa-His (N); made in house
T3 sequence (O75164 1-359): T1 sequence (O75164 1-359)
Procedure: Figure 3 KDM4A can demethylate methylated lysine and arginine containing non-histone sequences. […] The reaction product was analysed using matrix-assisted laser desorption/ionization–time of flight MS. Reactions containing enzymes are in red, no enzyme peptide controls are in black.

[7] = target: T4, His-KDM4A1-359-Bio (Homo sapiens, UniProt O75164); experiment: Biolayer interferometry binding to KDM4A
T4 construct: KDM4A protein (residues 1-359) was cloned into the pNIC-Bio3 plasmid, which incorporates a C-terminal AviTag; made in house; host or cells: E. coli BL21(DE3)Rosetta co-transfected with pCDF-BirA
T4 sequence (O75164 1-359): T1 sequence (O75164 1-359)

IC50 ([1]; AlphaScreen): > 100 µM
Compound: CC[C@H](C)[C@@H]1NC(=O)CNC(=O)[C@H](CC(C)C)NC(=O)[C@H](Cc2c[nH]c3ccccc23)NC(=O)[C@H](Cc2ccc(O)cc2)NC(=O)[C@@H](Cc2ccc(O)cc2)NC(=O)CSC[C@@H](C(N)=O)NC(=O)[C@H](Cc2ccc(O)cc2)NC(=O)[C@H](CO)NC(=O)[C@H](CCCNC(=N)N)NC(=O)[C@@H]2CCCN2C(=O)[C@H]([C@@H](C)O)NC1=O [CP1] ({CH2CO}-[dY]YWLGITPRSYC-NH2; thioether N-12)

IC50 ([1]; AlphaScreen): > 100 µM
IC50 [2]: > 100 µM
Compound: CC[C@H](C)[C@@H]1NC(=O)[C@H](C)NC(=O)[C@@H]2CCCN2C(=O)[C@H]([C@@H](C)O)NC(=O)[C@H](Cc2ccc(O)cc2)NC(=O)[C@H](Cc2ccccc2)NC(=O)[C@H](Cc2c[nH]c3ccccc23)NC(=O)[C@H](Cc2ccc(O)cc2)NC(=O)CSC[C@@H](C(N)=O)NC(=O)[C@H](Cc2c[nH]c3ccccc23)NC(=O)[C@H](CCCNC(=N)N)NC1=O [CP3] ({CH2CO}-YWFYTPAIRWC-NH2; thioether N-11)

KDM4A IC50 relative to CP2 ([1]; AlphaScreen): four fold higher
Compound: DYVYNTRSGWRWYTC [Linear CP2]

Intra-subfamily selectivity KDM4A-C over KDM4D-E ([1]; ratio of IC50 values): > 100 fold
Selectivity by IC50 for KDM4 over other JmjC-demethylase families, PHD2, FIH and KDM1A ([1]; ratio of IC50 values): > 160 fold
KDM4A Binding kdiss [7]: 0.000784 s⁻¹
KDM4A Binding kon [7]: 21800 M⁻¹ s⁻¹
Compound: LYLKSRRSGLTWIPC [CP4]

Selectivity by IC50 for KDM4 over other JmjC-demethylase families, PHD2, FIH and KDM1A ([1]; ratio of IC50 values): > 160 fold
KDM4A Binding kdiss [7]: 0.0107 s⁻¹
KDM4A Binding kon [7]: 62000 M⁻¹ s⁻¹
Compound: LYSKYTQSGVRWVC [CP5]

Further lines, the compound ahead of its results:

Compound: CC(C)[C@H]1C(=O)N[C@@H](Cc2ccc(O)cc2)C(=O)N[C@@H](CC(N)=O)C(=O)N[C@@H]([C@@H](C)O)C(=O)N[C@@H](C)C(=O)N[C@@H](CO)C(=O)N[C@H](C)C(=O)N[C@@H](Cc2c[nH]c3ccccc23)C(=O)N[C@@H](CCCNC(=N)N)C(=O)N[C@@H](Cc2c[nH]c3ccccc23)C(=O)N[C@@H](Cc2ccc(F)cc2)C(=O)N2CCC[C@H]2C(=O)N(C)[C@H](C(N)=O)CSCC(=O)N[C@H](Cc2ccc(O)cc2)C(=O)N1C [CP2.3(R6A)] ({CH2CO}-[dY][NMeV]YNTAS[dA]WRW[Phe(4-F)]P[NMeC]-NH2; thioether N-14)
IC50 [2]: > 10 µM

Compound: DY(meV)YNTRSDAWRW(4FF)P(meC) [CP2.3]
Inhibitor range with increases in nuclear H3K9me3/H3K36me3 staining [4]: 10 to 20 µM

Compound: DY(meV)YNTRSDAWRWY(meT)(meC) [CP2.2]
Inhibitor range with increases in nuclear H3K9me3/H3K36me3 staining [4]: 10 to 20 µM

Compound: DYVYNTRSDAWRWYT(meC) [CP2.1]
Inhibitor range with increases in nuclear H3K9me3/H3K36me3 staining [4]: 10 to 20 µM

Compound: DYVYNTRSGWRWYTC-BRRRRRRRRR [CP2(polyR)]
H3K9me3 levels in cells overexpressing FLAG-KDM4A (cellular KDM4A demethylase activity) [5]: Loss of H3K9me3 staining; also recorded: no inhibition of cellular KDM4A demethylase activity

Compound: DYVYNT[Lys(Me3)]SGWRWYTC [R6Kme3]
Demethylation of the peptide by KDM4A (substrate) [6]: efficiently demethylated
Demethylation of the peptide by KDM4A (substrate) ([6]; listed as CP2(R6Kme3)): substrates of KDM4A

Compound: LYVYNT(Rme2a)SGWRWYTC (not fully specified (N-terminus, bridges)) [CP2(R6me2a)]
Demethylation of the peptide by KDM4A (substrate) [6]: demethylate; also recorded: substrates of KDM4A
